From publication PMC7816042, “Insights into the Structure-Activity Relationship of Glycosides as Positive Allosteric Modulators Acting on P2X7 Receptors” (Molecular Pharmacology, 2021)

Experiments:
[1] = target: T1, human P2X7 (Homo sapiens, UniProt Q99572); assay: YO-PRO-1 dye uptake assay in HEK-hP2X7 cells; format: cell-based
T1 construct: expressed in transfected cells
T1 sequence (Q99572 1-595): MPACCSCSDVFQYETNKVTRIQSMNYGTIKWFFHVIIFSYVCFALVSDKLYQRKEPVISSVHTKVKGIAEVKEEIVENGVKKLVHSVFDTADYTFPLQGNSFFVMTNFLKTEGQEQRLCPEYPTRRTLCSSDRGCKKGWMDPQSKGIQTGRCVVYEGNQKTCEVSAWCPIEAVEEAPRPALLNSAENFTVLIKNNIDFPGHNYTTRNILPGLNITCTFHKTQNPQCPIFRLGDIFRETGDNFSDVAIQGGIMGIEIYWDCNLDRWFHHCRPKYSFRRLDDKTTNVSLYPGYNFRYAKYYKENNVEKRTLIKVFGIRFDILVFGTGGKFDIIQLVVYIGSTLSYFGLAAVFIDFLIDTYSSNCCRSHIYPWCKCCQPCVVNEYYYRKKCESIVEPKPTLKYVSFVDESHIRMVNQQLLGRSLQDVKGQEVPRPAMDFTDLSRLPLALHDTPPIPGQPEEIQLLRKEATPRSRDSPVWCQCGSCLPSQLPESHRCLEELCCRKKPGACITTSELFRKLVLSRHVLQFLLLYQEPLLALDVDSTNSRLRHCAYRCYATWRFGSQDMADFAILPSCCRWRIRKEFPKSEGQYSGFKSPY

[2] = system: nontransfected HEK-293 cells; assay: YO-PRO-1 dye uptake in parental nontransfected HEK-293 cells; format: cell-based, human; conditions: drug alone

C[C@H]1O[C@@H](O[C@H]2CC[C@@]3(C)[C@@H](CC[C@]4(C)[C@@H]3C=C[C@]35OC[C@@]6(CCC(C)(C)C[C@H]63)[C@@H](O)C[C@]54C)[C@]2(C)CO)[C@H](O)[C@@H](O[C@@H]2O[C@H](CO)[C@@H](O)[C@H](O)[C@H]2O)[C@H]1O [Saikosaponin A, saikosaponin A]
Effect of AZ10606120 pretreatment on response to ATP + glycoside (P2X7 dependence) ([1]; 10 µM AZ10606120 pretreatment): unaffected by AZ10606120 pretreatment | ATP-induced YO-PRO-1 response in fixed-concentration screen ([1]; 200 µM ATP, 10 µM glycoside, compared with ATP + DMSO): large increase | Toxic effect on cells ([1]; YO-PRO-1 uptake without ATP or without P2X7): toxic effect on the cells | YO-PRO-1 uptake in HEK-hP2X7 cells in the absence of ATP ([1]; drug alone): could induce YO-PRO-1 uptake | YO-PRO-1 uptake in nontransfected HEK-293 cells (no P2X7) [2]: could induce YO-PRO-1 uptake
